{"source": "paper PMC9446078", "about": "(Frontiers in Endocrinology, 2022)", "experiment": "Toxicokinetics in miniature swine", "format": "in vivo, Hanford miniature swine", "protocol": "A total of 40 Hanford miniature swine (20 male and 20 female) divided into four treatment groups were used for this study. A 12-week topical application of Galnobax 20% was carried out in the miniature swine wound healing model with twice-daily dosing. Six wounds (10 cm^2 each) of partial thickness were created on the dorsal region of all animals. Four wounds of each animal received twice-daily topical doses of either the vehicle or Galnobax gel, and the remaining two sites served as untreated comparative control wounds. Each group has four male and female miniature swine for the assessments and one each for the recovery period as given in Table 1 . Safety parameters in terms of ECG, clinical pathology, wound site evaluation, and toxicokinetics were performed during the study.", "key": {"[1]": {"settings": "Day 1, Group 2 swine, topical 400 mg Galnobax Gel, mean"}, "[2]": {"settings": "Week 6, Group 2 swine, topical 400 mg Galnobax Gel BID, mean"}, "[3]": {"settings": "Week 12, Group 2 swine, topical 400 mg Galnobax Gel BID, mean"}}}
{"compound": "CC(C)NCC(O)COc1ccc(CCC(=O)O)cc1", "note": "(centres unmarked) [Esmolol Acid, Esmolol acid]", "values": [{"measurement": "AUClast", "setting": "[1]", "value": 3780, "unit": "ng·h/mL"}, {"measurement": "Cmax", "setting": "[1]", "value": 683, "unit": "ng/mL"}, {"measurement": "Tmax", "setting": "[1]", "value": 2.60, "unit": "h"}, {"measurement": "t1/2", "setting": "[1]", "value": 4.18, "unit": "h"}, {"measurement": "t1/2", "setting": "Day 1, Group 2 swine, topical 400 mg Galnobax Gel, mean, listed as Esmolol acid", "value": "approximately 4 hr"}, {"measurement": "AUClast", "setting": "[2]", "value": 308, "unit": "ng·h/mL"}, {"measurement": "Cmax", "setting": "[2]", "value": 52.5, "unit": "ng/mL"}, {"measurement": "Tmax", "setting": "[2]", "value": 5.33, "unit": "h"}, {"measurement": "AUC0-8", "setting": "[3]", "value": 269, "unit": "ng·h/mL"}, {"measurement": "AUClast", "setting": "[3]", "value": 291, "unit": "ng·h/mL"}, {"measurement": "Cmax", "setting": "[3]", "value": 59.7, "unit": "ng/mL"}, {"measurement": "Tmax", "setting": "[3]", "value": 2.09, "unit": "h"}, {"measurement": "t1/2", "setting": "[3]", "value": 15.90, "unit": "h"}, {"measurement": "accumulation after 12 weeks of twice-daily topical application", "setting": "miniature swine, topical Galnobax", "value": "no apparent accumulation"}]}
